Data on two compounds can be found in article PMC5896373 (Molecular Pharmacology, 2018).

Residue numbers refer to the chain shown, from its start. “And” between values parts separate entries of the source, which are not always exact repeats. Identical values can stand only once.

One assay deals with T1, P2X7R point mutant K297G (Homo sapiens, UniProt Q99572, I21V/K297G/M24R/N16P/N25R/Q22R/R20V/S23N/T19I/Y26L).
T1 construct: expressed in transfected cells; host or cells: Xenopus laevis oocytes (cRNA injection)
The assay can be described thus: Two-electrode voltage clamp of ATP-evoked currents in Xenopus oocytes. It counts as cell-based. To be noted: EC90 ATP, mean ± S.E.M. (In general: In two-electrode clamp one electrode senses voltage and the other passes current.)

The target of assay [1] is T2, chimeric P2X7/1 receptor 170–177 (Homo sapiens, UniProt Q99572, A172V/A176I/E174D/E175D/I170V/I21V/M24R/N16P/N25R/Q22R/R20V/S23N/T19I/V173D/Y26L).
T2 construct: expressed in transfected cells; host or cells: Xenopus laevis oocytes (cRNA injection)
T2 sequence (Q99572 1-595 N16P/T19I/R20V/I21V/Q22R/S23N/M24R/N25R/Y26L/I170V/A172V/V173D/E174D/E175D/A176I): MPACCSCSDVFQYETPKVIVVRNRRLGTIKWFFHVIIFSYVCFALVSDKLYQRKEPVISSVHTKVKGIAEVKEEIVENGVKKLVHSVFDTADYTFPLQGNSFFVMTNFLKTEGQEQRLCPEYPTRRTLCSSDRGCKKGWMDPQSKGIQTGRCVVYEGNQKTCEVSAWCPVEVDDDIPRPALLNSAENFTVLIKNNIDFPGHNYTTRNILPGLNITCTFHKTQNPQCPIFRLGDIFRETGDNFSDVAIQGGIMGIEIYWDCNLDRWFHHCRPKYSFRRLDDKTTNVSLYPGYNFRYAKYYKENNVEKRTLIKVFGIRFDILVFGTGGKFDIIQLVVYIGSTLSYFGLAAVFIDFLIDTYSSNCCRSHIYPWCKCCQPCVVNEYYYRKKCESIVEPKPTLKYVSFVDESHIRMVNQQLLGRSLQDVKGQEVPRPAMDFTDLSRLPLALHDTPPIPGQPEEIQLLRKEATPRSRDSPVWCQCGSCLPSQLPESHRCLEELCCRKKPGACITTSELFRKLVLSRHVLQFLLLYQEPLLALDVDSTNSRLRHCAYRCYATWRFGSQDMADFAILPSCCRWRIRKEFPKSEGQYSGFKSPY
The description is as above. It counts as cell-based.
Protocol: (§1) Additional point mutants were made using the QuikChange mutagenesis kit (Stratagene California, La Jolla, CA). The production of the correct mutations and absence of coding errors was determined by DNA sequencing (Automated ABI Sequencing Service, University of Leicester, UK). cRNA was generated for the mutants and 50 nl (50 ng) was injected into manually defoliculated stage V Xenopus laevis oocytes using an Inject+Matic microinjector (J.A. Gabay, Inject+Matic, Geneva, Switzerland). Injected oocytes were stored at 16°C in ND96 buffer [in millimolar concentrations, NaCl 96, KCl 2, CaCl2 1.8, MgCl2 1, sodium pyruvate 5, and HEPES 5 (pH 7.6) supplemented with 50 μg/ml gentamycin and 50 μg/ml tetracycline]. Three to seven days postinjection two-electrode voltage clamp recordings were made from oocytes bathed in divalent-free ND96 buffer (in millimolar concentrations, NaCl 96, KCl 2, sodium pyruvate 5, HEPES 5, and 0.1 flufenamic acid, pH 7.6). Oocytes were voltage clamped at a holding potential of −60 mV with a GeneClamp500B amplifier (Molecular Devices).
(§2) Inhibition by the antagonists was expressed as the percentage of the peak current amplitude of an EC90 concentration of ATP recorded before the application of antagonist (ATP gave reproducible responses to ATP in the absence of antagonist). Inhibition curves were fitted with the Hill equation (variable slope) using GraphPad Prism 6 (GraphPad Software, San Diego, CA). […] Individual concentration-response curves were generated for individual experiments, and statistical analysis was carried out on the data generated. […] Data are shown as mean ± S.E.M. In all cases n ≥ 3 for all data points.

Assay [2] deals with T3, chimeric P2X7/1 receptor 89–94 (Homo sapiens, UniProt Q99572, I21V/M24R/N16P/N25R/Q22R/R20V/S23N/T19I/T90V/T94V/Y26L).
T3 construct: expressed in transfected cells; host or cells: Xenopus laevis oocytes (cRNA injection)
T3 sequence (Q99572 1-595 N16P/T19I/R20V/I21V/Q22R/S23N/M24R/N25R/Y26L/T90V/T94V): T2 sequence (Q99572 1-595 N16P/T19I/R20V/I21V/Q22R/S23N/M24R/N25R/Y26L/I170V/A172V/V173D/E174D/E175D/A176I) with T90V, T94V, V170I, V172A, D173V, D174E, D175E, I176A
The assay is described as above. It counts as cell-based. The note with it: for IC50: inhibition of EC90 ATP response.
Protocol: (§3) The production of the correct mutations and absence of coding errors was determined by DNA sequencing (Automated ABI Sequencing Service, University of Leicester, UK). cRNA was generated for the mutants and 50 nl (50 ng) was injected into manually defoliculated stage V Xenopus laevis oocytes using an Inject+Matic microinjector (J.A. Gabay, Inject+Matic, Geneva, Switzerland). Injected oocytes were stored at 16°C in ND96 buffer [in millimolar concentrations, NaCl 96, KCl 2, CaCl2 1.8, MgCl2 1, sodium pyruvate 5, and HEPES 5 (pH 7.6) supplemented with 50 μg/ml gentamycin and 50 μg/ml tetracycline]. Three to seven days postinjection two-electrode voltage clamp recordings were made from oocytes bathed in divalent-free ND96 buffer (in millimolar concentrations, NaCl 96, KCl 2, sodium pyruvate 5, HEPES 5, and 0.1 flufenamic acid, pH 7.6). Oocytes were voltage clamped at a holding potential of −60 mV with a GeneClamp500B amplifier (Molecular Devices).
as §2

The target in the next assay is T4, P2X7R point mutant P96A (Homo sapiens, UniProt Q99572, I21V/M24R/N16P/N25R/P96A/Q22R/R20V/S23N/T19I/Y26L).
T4 construct: expressed in transfected cells; host or cells: Xenopus laevis oocytes (cRNA injection)
Described as above. It counts as cell-based. To be noted: EC90 ATP, mean ± S.E.M.

The target of another assay is T5, P2X7-2Nβ receptor (Homo sapiens, UniProt Q99572, I21V/M24R/N16P/N25R/Q22R/R20V/S23N/T19I/Y26L).
T5 construct: expressed in transfected cells; host or cells: Xenopus laevis oocytes (cRNA injection)
The assay is described as above. The note with it: inhibition of EC90 ATP response. The assay is classed as cell-based.

For the next assay, the target named is T6, P2X7R point mutant F108C (Homo sapiens, UniProt Q99572, F108C/I21V/M24R/N16P/N25R/Q22R/R20V/S23N/T19I/Y26L).
T6 construct: expressed in transfected cells; host or cells: Xenopus laevis oocytes (cRNA injection)
The assay can be described thus: cell-based.

In assay [3] the target is T7, chimeric P2X7/1 receptor 279–285 (left flipper) (Homo sapiens, UniProt Q99572, DEL279-281/I21V/M24R/N16P/N25R/N284E/Q22R/R20V/S23N/T19I/T282Y/T283E/V285K/Y26L).
T7 construct: expressed in transfected cells; host or cells: Xenopus laevis oocytes (cRNA injection)
T7 sequence (Q99572 with tags, fused parts or gaps N16P/T19I/R20V/I21V/Q22R/S23N/M24R/N25R/Y26L/DEL279-281/T282Y/T283E/N284E/V285K): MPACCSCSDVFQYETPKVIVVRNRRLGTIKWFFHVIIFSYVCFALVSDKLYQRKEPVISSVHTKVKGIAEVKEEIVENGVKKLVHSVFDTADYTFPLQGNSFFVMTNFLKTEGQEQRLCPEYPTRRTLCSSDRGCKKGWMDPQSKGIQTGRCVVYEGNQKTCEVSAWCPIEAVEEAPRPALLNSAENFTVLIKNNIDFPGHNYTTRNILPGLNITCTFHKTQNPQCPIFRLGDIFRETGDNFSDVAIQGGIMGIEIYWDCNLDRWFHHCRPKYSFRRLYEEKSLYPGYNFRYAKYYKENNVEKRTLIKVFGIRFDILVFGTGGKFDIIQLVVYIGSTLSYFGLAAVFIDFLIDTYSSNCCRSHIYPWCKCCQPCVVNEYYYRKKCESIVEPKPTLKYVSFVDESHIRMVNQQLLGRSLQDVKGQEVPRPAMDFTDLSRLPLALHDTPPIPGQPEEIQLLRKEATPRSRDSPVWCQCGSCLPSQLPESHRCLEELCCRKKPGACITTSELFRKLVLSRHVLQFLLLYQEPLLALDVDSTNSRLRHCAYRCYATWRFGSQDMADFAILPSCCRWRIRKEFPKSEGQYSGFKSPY
The assay can be described thus: Two-electrode voltage clamp of ATP-evoked currents in Xenopus oocytes. It counts as cell-based. The note with it: chimera 279–285; for IC50: inhibition of EC90 ATP response.
Protocol: as §3, §2

T5 sequence (Q99572 whole entry N16P/T19I/R20V/I21V/Q22R/S23N/M24R/N25R/Y26L): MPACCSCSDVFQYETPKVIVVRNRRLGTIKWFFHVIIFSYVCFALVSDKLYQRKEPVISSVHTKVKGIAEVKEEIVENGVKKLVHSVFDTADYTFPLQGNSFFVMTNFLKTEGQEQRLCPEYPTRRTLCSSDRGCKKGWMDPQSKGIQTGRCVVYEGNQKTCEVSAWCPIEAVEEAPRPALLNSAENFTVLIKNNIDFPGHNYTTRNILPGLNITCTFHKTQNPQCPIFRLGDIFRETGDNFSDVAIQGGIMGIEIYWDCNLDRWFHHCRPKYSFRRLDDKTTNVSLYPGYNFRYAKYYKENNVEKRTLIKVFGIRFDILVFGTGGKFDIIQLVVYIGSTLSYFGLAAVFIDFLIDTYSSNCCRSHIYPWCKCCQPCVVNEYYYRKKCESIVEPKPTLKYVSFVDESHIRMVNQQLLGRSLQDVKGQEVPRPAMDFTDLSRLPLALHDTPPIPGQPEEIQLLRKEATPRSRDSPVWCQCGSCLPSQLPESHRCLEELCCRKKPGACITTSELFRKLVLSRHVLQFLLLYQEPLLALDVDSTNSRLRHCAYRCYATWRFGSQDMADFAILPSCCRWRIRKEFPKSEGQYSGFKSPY
T4 sequence (Q99572 whole entry N16P/T19I/R20V/I21V/Q22R/S23N/M24R/N25R/Y26L/P96A): as the sequence (Q99572 whole entry N16P/T19I/R20V/I21V/Q22R/S23N/M24R/N25R/Y26L) above, with P96A counted along it
T6 sequence (Q99572 whole entry N16P/T19I/R20V/I21V/Q22R/S23N/M24R/N25R/Y26L/F108C): as the sequence (Q99572 whole entry N16P/T19I/R20V/I21V/Q22R/S23N/M24R/N25R/Y26L) above, with F108C counted along it
T1 sequence (Q99572 whole entry N16P/T19I/R20V/I21V/Q22R/S23N/M24R/N25R/Y26L/K297G): as the sequence (Q99572 whole entry N16P/T19I/R20V/I21V/Q22R/S23N/M24R/N25R/Y26L) above, with K297G counted along it
Protocol for P2X7-2Nβ receptor: as §3, §2
Protocol for P2X7R point mutant F108C: (§4) Injected oocytes were stored at 16°C in ND96 buffer [in millimolar concentrations, NaCl 96, KCl 2, CaCl2 1.8, MgCl2 1, sodium pyruvate 5, and HEPES 5 (pH 7.6) supplemented with 50 μg/ml gentamycin and 50 μg/ml tetracycline]. Three to seven days postinjection two-electrode voltage clamp recordings were made from oocytes bathed in divalent-free ND96 buffer (in millimolar concentrations, NaCl 96, KCl 2, sodium pyruvate 5, HEPES 5, and 0.1 flufenamic acid, pH 7.6). Oocytes were voltage clamped at a holding potential of −60 mV with a GeneClamp500B amplifier (Molecular Devices).
as §2
Protocol for P2X7R point mutant K297G: as §1
Inhibition by the antagonists was expressed as the percentage of the peak current amplitude of an EC90 concentration of ATP recorded before the application of antagonist (ATP gave reproducible responses to ATP in the absence of antagonist). […]
Protocol for P2X7R point mutant P96A: as §4, §2

As to `Cl.Clc1cccc(-c2nnnn2Cc2cccnc2)c1Cl.O` [A438079, 3-(5-(2,3-dichlorophenyl)-1H-tetrazol-1-yl)methyl pyridine hydrochloride hydrate], the IC50 (in general, the concentration at which inhibition is half-maximal) on P2X7R point mutant K297G is 50.1 nM; in assay [1], 631 nM; in assay [2] (chimera 89–94), greater than 100000 nM; at P2X7R point mutant P96A, 12600 nM; on P2X7-2Nβ receptor, 933 nM and 1000 nM; on P2X7R point mutant F108C, 10000 nM. In assay [3], this compound gave an IC50 of 31600 nM. For the same compound, the inhibition – broadly, the relative decrease from the control value, in per cent – at 10 µM in assay [2] (P2X7, read-out: inhibition of ATP responses) came out at 15.7%.
Take `COc1ccc(CC(=O)NC(N=C(NC#N)Nc2cccc3ncccc23)C(C)(C)C)cc1OC` (stereo not drawn) [A740003, N-[1-[[(cyanoamino)(5-quinolinylamino)methylene]amino]-2,2-dimethylpropyl]-3,4-dimethoxybenzeneacetamide]: the IC50 on P2X7R point mutant K297G was 12.6 nM; in assay [1] it was 63.1 nM; in assay [2] (chimera 89–94), 251 nM; against P2X7R point mutant P96A, 316 nM; against P2X7-2Nβ receptor it was 79.4 nM; against P2X7R point mutant F108C, 1000 nM. The compound also had an IC50 in assay [3] of 631 nM. Besides, the “effect on antagonist potency relative to P2X7-2Nβ” value in assay [1] (chimera 170–177) was “no effect”. In assay [2] (chimera 89–94), the “fold decrease in antagonist sensitivity/affinity relative to P2X7-2Nβ” value is roughly 3 fold. In addition, in assay [3], the “fold decrease in antagonist sensitivity relative to P2X7-2Nβ” value is on record as roughly 9 fold.
